Test results published in patent US7776558B2, “Human G protein-coupled receptor and modulators thereof for the treatment of cell death-related disorders” (Arena Pharmaceuticals, Inc., priority 2003, dated 2010).
Several values for one entry are separate records, joined by “and”; a condition that tells them apart may be missing. Identical values can stand only once. Entries after “also recorded” stand apart in the source; their conditions may differ. Like-named read-outs stand apart in the source and are kept apart here. Where no end group is shown, it is not given here.

Target: T1, human FPRL2 (Homo sapiens, UniProt P25089)
T1 sequence (P25089 with tags, fused parts or gaps): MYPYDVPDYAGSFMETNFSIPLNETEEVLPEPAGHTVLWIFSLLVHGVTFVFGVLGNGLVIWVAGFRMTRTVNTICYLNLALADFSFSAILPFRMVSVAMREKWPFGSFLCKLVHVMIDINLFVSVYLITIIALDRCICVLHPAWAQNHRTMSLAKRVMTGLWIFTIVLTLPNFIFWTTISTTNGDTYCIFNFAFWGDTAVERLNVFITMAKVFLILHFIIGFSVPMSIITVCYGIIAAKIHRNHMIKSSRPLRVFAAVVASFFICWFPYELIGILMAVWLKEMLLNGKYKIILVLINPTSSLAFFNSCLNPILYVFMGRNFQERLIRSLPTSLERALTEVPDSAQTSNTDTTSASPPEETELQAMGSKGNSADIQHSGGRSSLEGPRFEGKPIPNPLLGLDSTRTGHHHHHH
Test: [35S]GTPγS binding assay, membranes of transiently transfected CHO cells
Assay type: biochemical
Parameters: expressed in transfected cells; host or cells: CHO-K1 cells, transient, pCMV; plasma membranes
Description: The plasmids used were HA/V5 doubled tagged endogenous FPRL2 in pCMV, HA/V5 double-tagged endogenous FPRL1 in pCMV, HAN5 double-tagged endogenous FPR in pCMV, and pCMV alone (See, Example 1). Transient transfections were carried out on CHO-K1 cells. To a 15 cm dish of confluent cells, 12 μg of plasmid DNA and 60 μl Lipofectamine (Invitrogen, Carlsbad, Calif.) were added to each plate. Twenty-four hours post-infection, plasma membranes were isolated as described below. Assays were then run as described below.
“Membrane Scrape Buffer” consists of 20 mM HEPES and 10 mM EDTA, pH 7.4; “Membrane Wash Buffer” consists of […] and 0.1 mM EDTA, pH 7.4; “Binding. Buffer” consists of 20 mM HEPES, 100 mM NaCl, and 10 mM MgCl2, pH 7.4.
All materials were kept on ice throughout the procedure. Firstly, the media was aspirated from a confluent monolayer of transfected cells, followed by rinse with 10 ml cold PBS, followed by aspiration. Thereafter, 10 ml of Membrane Scrape Buffer was added to scrape cells; this was followed by transfer of cellular extract into 50 ml centrifuge tubes (centrifuged at 20,000 rpm for 17 minutes at 4° C.). Thereafter, the supernatant was aspirated and the pellet was resuspended in 30 ml Membrane Wash Buffer followed by centrifuging at 20,000 rpm for 17 minutes at 4° C. The supernatant was then aspirated and the pellet resuspended in Binding Buffer. This was then homogenized using a Brinkman Polytron™ homogenizer (15-20 second bursts until the all material is in suspension). This is referred to herein as “Membrane Protein”. A protein determination (Bradford Protein Assay) was carried out, and the protein concentration of the Membrane Protein was adjusted to 1.0 mg/ml with cold Binding Buffer for each of the experimental samples (FPRL2, FPRL1, FPR, pCMV).
GDP Buffer consisted of 37.5 ml Binding Buffer and 2 mg GDP (Sigma, cat. no. G-7127), followed by a series of dilutions in Binding Buffer to obtain 0.2 μM GDP (final concentration of GDP in each well was 0.1 μM GDP); each well comprising a candidate compound, has a final volume of 200 μl consisting of 100 μl GDP Buffer (final concentration, 0.1 μM GDP), 50 μl Membrane Protein in Binding Buffer, and 50 μl [35S]GTPγS (0.6 nM) in Binding Buffer (2.5 μl [35S]GTPγS per 10 ml Binding Buffer).
First, 100 μl GDP Buffer was added to each well of a Wallac Scintistrip™ (Wallac). […] Thereafter, 50 μl of Membrane Protein was added to each well (a control well comprising membranes without the GPCR Protein was also utilized), and pre-incubated for 5-10 minutes at room temperature. Thereafter, 50 μl of [^35S]GTPγS (0.6 nM) in Binding Buffer was added to each well, followed by incubation on a shaker for 60 minutes at room temperature (again, in this example, plates were covered with foil). The assay was then stopped by spinning of the plates at 4000 RPM for 15 minutes at 22° C. The plates were then aspirated with an 8 channel manifold and sealed with plate covers. The plates were then read on a Wallac 1450 using setting “Prot. #37” (as per manufacturer instructions).

[1] = read-out: EC50 in [35S]GTPγS binding assay
[2] = FIG. 3 panel A, transiently transfected CHO cells, read-out: EC50 at FPRL2, promoted [35S]GTPγS binding

Row | Compound | EC75 in [35S]GTPγS binding assay | Activity at human FPRL2, FPRL1 and FPR (by [35S]GTPγS binding assay and by melanophore assay, FIG. 5) | EC50 [1] | EC50 [2] [nM] | EC50 values at FPRL2 relative to the corresponding values at FPRL1 (FPRL2 versus FPRL1) | Agonist activity and selectivity for FPRL2 (compared with FPRL1 and FPR, FIG. 3)
1 | CC(C)c1ccc2c(c1)CCC1C(C)(C(N)=O)CCCC21C (stereo not drawn) [Compound 1, 7-Isopropyl-1,4a-dimethyl-1,2,3,4,4a,9,10,10a-octahydro-phenanthrene-1-carboxylic acid amide] | about 15 μM | robust and selective agonist of FPRL2 | ~2800 nM | – | – | –
2 | CC[C@H](C)[C@H](NC(=O)[C@H](CCC(=O)O)NC(=O)[C@H](CO)NC(=O)[C@@H](NC(=O)[C@H](CC(C)C)NC(=O)[C@H](CC(C)C)NC(=O)[C@H](CC(C)C)NC(=O)[C@H](CC(C)C)NC(=O)[C@H](CS)NC(=O)[C@H](CO)NC(=O)[C@H](Cc1ccccc1)NC(=O)CNC(=O)[C@H](CCCNC(=N)N)NC(=O)[C@@H]1CCCN1C(=O)[C@H](C)NC(=O)[C@@H](N)CCSC)[C@@H](C)O)C(=O)N[C@@H](CC(=O)O)C(=O)N[C@@H](CC(C)C)C(=O)N1CCC[C@H]1C(=O)N[C@H](C(=O)N[C@@H](CCCCN)C(=O)N[C@@H](CCCNC(=N)N)C(=O)N[C@@H](CCCNC(=N)N)C(=O)N[C@@H](C)C(=O)O)C(C)C [Humanin] | about 1.5 μM | – | ~320 nM and ~300 nM | ~320 | – | –
3 | MAPRGFSCLLLLTGEIDLPVKRRA [[Gly14]-Humanin] | – | – | – | ~72 | more than an order of magnitude lower | selective and robust agonists for FPRL2; also recorded: robust and selective agonists for FPRL2
